{"source": "paper PMC6886798", "about": "“Expression of myeloid Src-family kinases is associated with poor prognosis in AML and influences Flt3-ITD kinase inhibitor acquired resistance” (PLoS ONE, 2019)", "experiment_in_all_cases": "KINOMEscan", "type_in_all_cases": "binding", "conditions_in_all_cases": "1.0 µM", "key": {"ALK(L1196M)": {"biological_target": "T1, ALK(L1196M) (Homo sapiens, UniProt Q9UM73, L1196M)", "T1 construct": "purchased Eurofins/DiscoverX KINOMEscan scanMAX", "procedure": "(§1) Kinase retention to the immobilized ligand is then measured using quantitative real-time PCR for each kinase-specific DNA barcode."}, "AMPK-alpha2": {"biological_target": "T2, AMPK-alpha2 (Homo sapiens, UniProt P54646)", "T2 construct": "purchased Eurofins/DiscoverX KINOMEscan scanMAX", "procedure": "as §1"}, "ANKK1": {"biological_target": "T3, ANKK1 (Homo sapiens, UniProt Q8NFD2)", "T3 construct": "purchased Eurofins/DiscoverX KINOMEscan scanMAX", "procedure": "as §1"}, "CAMK1B": {"biological_target": "T4, CAMK1B (Homo sapiens, UniProt Q6P2M8)", "T4 construct": "purchased Eurofins/DiscoverX KINOMEscan scanMAX", "procedure": "as §1"}, "CAMK1D": {"biological_target": "T5, CAMK1D (Homo sapiens, UniProt Q8IU85)", "T5 construct": "purchased Eurofins/DiscoverX KINOMEscan scanMAX", "procedure": "as §1"}, "CDK3": {"biological_target": "T6, CDK3 (Homo sapiens, UniProt Q00526)", "T6 construct": "purchased Eurofins/DiscoverX KINOMEscan scanMAX", "procedure": "as §1"}, "CDK4-cyclinD1": {"biological_target": "T7, CDK4-cyclinD1 (Homo sapiens, UniProt P11802)", "T7 construct": "purchased Eurofins/DiscoverX KINOMEscan scanMAX", "procedure": "as §1"}, "CDK4-cyclinD3": {"biological_target": "T8, CDK4-cyclinD3 (Homo sapiens, UniProt P11802)", "T8 construct": "purchased Eurofins/DiscoverX KINOMEscan scanMAX", "procedure": "as §1"}, "CDKL3": {"biological_target": "T9, CDKL3 (Homo sapiens, UniProt Q8IVW4)", "T9 construct": "purchased Eurofins/DiscoverX KINOMEscan scanMAX", "procedure": "as §1"}, "CSNK1A1L": {"biological_target": "T10, CSNK1A1L (Homo sapiens, UniProt Q8N752)", "T10 construct": "purchased Eurofins/DiscoverX KINOMEscan scanMAX", "procedure": "as §1"}, "DCAMKL3": {"biological_target": "T11, DCAMKL3 (Homo sapiens, UniProt Q9C098)", "T11 construct": "purchased Eurofins/DiscoverX KINOMEscan scanMAX", "procedure": "as §1"}, "DMPK": {"biological_target": "T12, DMPK (Homo sapiens, UniProt Q09013)", "T12 construct": "purchased Eurofins/DiscoverX KINOMEscan scanMAX", "procedure": "as §1"}, "DRAK2": {"biological_target": "T13, DRAK2 (Homo sapiens, UniProt O94768)", "T13 construct": "purchased Eurofins/DiscoverX KINOMEscan scanMAX", "procedure": "as §1"}, "DYRK1B": {"biological_target": "T14, DYRK1B (Homo sapiens, UniProt Q9Y463)", "T14 construct": "purchased Eurofins/DiscoverX KINOMEscan scanMAX", "procedure": "as §1"}, "DYRK2": {"biological_target": "T15, DYRK2 (Homo sapiens, UniProt Q92630)", "T15 construct": "purchased Eurofins/DiscoverX KINOMEscan scanMAX", "procedure": "as §1"}, "EPHA7": {"biological_target": "T16, EPHA7 (Homo sapiens, UniProt Q15375)", "T16 construct": "purchased Eurofins/DiscoverX KINOMEscan scanMAX", "T16 sequence (Q15375 28-998)": "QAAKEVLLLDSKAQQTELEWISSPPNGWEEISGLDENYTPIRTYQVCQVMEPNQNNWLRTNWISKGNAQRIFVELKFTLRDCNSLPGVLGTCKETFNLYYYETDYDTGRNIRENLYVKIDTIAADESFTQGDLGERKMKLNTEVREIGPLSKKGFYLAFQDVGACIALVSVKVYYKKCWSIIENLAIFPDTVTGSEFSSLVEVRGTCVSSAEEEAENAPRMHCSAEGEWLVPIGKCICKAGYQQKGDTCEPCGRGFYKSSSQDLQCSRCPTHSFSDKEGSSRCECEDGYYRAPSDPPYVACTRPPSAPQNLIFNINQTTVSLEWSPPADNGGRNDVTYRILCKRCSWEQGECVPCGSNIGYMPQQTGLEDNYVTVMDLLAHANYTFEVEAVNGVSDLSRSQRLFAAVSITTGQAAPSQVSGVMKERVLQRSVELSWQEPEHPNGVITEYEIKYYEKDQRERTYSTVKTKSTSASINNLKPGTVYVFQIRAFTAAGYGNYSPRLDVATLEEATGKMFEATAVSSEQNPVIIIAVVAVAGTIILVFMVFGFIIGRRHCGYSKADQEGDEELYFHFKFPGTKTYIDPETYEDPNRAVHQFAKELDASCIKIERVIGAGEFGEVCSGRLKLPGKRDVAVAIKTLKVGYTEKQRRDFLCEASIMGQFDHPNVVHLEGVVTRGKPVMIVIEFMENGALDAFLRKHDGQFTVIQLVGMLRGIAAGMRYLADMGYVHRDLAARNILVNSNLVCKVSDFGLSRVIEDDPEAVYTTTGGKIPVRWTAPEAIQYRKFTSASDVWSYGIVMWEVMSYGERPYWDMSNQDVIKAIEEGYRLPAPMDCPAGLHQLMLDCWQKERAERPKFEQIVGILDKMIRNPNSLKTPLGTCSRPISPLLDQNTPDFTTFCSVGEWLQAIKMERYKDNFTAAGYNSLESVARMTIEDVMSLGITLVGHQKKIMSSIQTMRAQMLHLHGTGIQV", "procedure": "as §1"}, "FGFR1": {"biological_target": "T17, FGFR1 (Homo sapiens, UniProt P11362)", "T17 construct": "purchased Eurofins/DiscoverX KINOMEscan scanMAX", "T17 sequence (P11362 22-822)": "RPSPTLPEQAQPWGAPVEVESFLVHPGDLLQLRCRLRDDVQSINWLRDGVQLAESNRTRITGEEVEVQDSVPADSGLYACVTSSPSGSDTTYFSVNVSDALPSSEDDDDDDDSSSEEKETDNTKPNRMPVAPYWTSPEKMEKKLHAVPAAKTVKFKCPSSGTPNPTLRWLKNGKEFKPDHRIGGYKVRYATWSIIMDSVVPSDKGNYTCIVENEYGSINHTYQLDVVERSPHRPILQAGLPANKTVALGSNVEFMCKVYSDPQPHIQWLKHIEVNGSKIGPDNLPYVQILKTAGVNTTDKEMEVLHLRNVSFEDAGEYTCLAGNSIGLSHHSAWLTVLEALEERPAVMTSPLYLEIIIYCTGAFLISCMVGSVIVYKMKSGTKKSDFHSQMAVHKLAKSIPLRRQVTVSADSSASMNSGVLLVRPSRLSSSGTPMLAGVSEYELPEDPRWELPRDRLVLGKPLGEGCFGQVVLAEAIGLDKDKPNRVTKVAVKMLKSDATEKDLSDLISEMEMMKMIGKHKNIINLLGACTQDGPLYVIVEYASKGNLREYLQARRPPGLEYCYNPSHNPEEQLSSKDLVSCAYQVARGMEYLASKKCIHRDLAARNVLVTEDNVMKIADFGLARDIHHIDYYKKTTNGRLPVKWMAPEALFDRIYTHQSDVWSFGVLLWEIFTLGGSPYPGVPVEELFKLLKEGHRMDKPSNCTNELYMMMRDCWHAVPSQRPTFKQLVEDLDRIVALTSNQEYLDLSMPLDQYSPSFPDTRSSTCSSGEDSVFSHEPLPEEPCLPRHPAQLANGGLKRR", "procedure": "as §1"}, "FLT3(D835V)": {"biological_target": "T18, FLT3(D835V) (Homo sapiens, UniProt P36888, D835V)", "T18 construct": "purchased Eurofins/DiscoverX KINOMEscan scanMAX", "procedure": "as §1"}, "GAK": {"biological_target": "T19, GAK (Homo sapiens, UniProt O14976)", "T19 construct": "purchased Eurofins/DiscoverX KINOMEscan scanMAX", "procedure": "as §1"}, "IRAK4": {"biological_target": "T20, IRAK4 (Homo sapiens, UniProt Q9NWZ3)", "T20 construct": "purchased Eurofins/DiscoverX KINOMEscan scanMAX", "procedure": "as §1"}, "[1]": {"biological_target": "T21, JAK1(JH1domain-catalytic) (Homo sapiens, UniProt P23458)", "T21 construct": "JAK1(JH1domain-catalytic); purchased Eurofins/DiscoverX KINOMEscan scanMAX", "T21 sequence (P23458 866-1154 limits assumed)": "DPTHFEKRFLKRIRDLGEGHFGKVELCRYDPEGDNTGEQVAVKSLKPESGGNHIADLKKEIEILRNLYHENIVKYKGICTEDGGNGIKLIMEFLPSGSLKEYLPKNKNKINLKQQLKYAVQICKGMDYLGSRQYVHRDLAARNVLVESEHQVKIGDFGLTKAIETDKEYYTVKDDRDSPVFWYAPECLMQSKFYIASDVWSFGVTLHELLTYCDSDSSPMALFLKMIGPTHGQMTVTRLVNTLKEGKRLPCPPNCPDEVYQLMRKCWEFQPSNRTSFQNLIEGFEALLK", "procedure": "as §1"}, "[2]": {"biological_target": "T22, JAK2(JH1domain-catalytic) (Homo sapiens, UniProt O60674)", "T22 construct": "JAK2(JH1domain-catalytic); purchased Eurofins/DiscoverX KINOMEscan scanMAX", "T22 sequence (O60674 840-1132 limits assumed)": "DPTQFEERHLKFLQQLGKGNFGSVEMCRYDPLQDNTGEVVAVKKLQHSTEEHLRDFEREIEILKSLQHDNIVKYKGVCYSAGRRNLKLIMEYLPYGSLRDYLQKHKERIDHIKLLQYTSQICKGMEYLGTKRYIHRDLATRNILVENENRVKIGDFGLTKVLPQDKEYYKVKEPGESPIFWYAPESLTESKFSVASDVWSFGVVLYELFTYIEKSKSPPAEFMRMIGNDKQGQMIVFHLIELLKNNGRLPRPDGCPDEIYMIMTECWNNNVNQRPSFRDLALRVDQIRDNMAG", "procedure": "as §1"}, "KIT(D816H)": {"biological_target": "T23, KIT(D816H) (Homo sapiens, UniProt P10721, D816H)", "T23 construct": "purchased Eurofins/DiscoverX KINOMEscan scanMAX", "T23 sequence (P10721 26-976 D816H)": "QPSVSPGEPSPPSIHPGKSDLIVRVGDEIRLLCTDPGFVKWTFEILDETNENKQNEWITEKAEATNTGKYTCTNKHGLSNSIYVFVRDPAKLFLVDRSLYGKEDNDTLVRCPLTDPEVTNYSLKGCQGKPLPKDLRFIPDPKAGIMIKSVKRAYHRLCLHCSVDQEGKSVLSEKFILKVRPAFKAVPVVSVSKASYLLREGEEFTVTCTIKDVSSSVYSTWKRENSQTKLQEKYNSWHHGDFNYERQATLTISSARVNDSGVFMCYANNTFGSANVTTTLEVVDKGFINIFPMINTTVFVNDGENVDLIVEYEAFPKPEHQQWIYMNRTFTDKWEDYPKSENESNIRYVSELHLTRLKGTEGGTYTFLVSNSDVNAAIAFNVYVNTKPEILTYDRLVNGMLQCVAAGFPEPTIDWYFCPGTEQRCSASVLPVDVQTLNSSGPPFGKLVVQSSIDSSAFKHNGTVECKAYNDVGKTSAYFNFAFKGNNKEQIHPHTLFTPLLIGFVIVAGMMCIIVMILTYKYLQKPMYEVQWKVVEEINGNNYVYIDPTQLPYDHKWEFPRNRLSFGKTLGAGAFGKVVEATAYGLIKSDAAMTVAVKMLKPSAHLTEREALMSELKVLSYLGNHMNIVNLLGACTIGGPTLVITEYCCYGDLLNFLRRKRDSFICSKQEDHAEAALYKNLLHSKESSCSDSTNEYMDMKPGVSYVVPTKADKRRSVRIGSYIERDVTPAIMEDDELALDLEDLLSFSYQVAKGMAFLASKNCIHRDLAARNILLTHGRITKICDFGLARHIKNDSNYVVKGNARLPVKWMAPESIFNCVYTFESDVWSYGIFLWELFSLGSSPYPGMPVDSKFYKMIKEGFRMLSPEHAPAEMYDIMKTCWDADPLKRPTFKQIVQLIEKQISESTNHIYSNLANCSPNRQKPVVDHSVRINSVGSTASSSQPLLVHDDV", "procedure": "as §1"}, "KIT(V559D)": {"biological_target": "T24, KIT(V559D) (Homo sapiens, UniProt P10721, V559D)", "T24 construct": "purchased Eurofins/DiscoverX KINOMEscan scanMAX", "T24 sequence (P10721 26-976 V559D)": "as the sequence (P10721 26-976 D816H) above, with V534D, H791D counted along it", "procedure": "as §1"}, "LKB1": {"biological_target": "T25, LKB1 (Homo sapiens, UniProt Q15831)", "T25 construct": "purchased Eurofins/DiscoverX KINOMEscan scanMAX", "procedure": "as §1"}, "LOK": {"biological_target": "T26, LOK (Homo sapiens, UniProt O94804)", "T26 construct": "purchased Eurofins/DiscoverX KINOMEscan scanMAX", "procedure": "as §1"}, "MAP4K4": {"biological_target": "T27, MAP4K4 (Homo sapiens, UniProt O95819)", "T27 construct": "purchased Eurofins/DiscoverX KINOMEscan scanMAX", "procedure": "as §1"}, "MARK3": {"biological_target": "T28, MARK3 (Homo sapiens, UniProt P27448)", "T28 construct": "purchased Eurofins/DiscoverX KINOMEscan scanMAX", "procedure": "as §1"}, "MKNK2": {"biological_target": "T29, MKNK2 (Homo sapiens, UniProt Q9HBH9)", "T29 construct": "purchased Eurofins/DiscoverX KINOMEscan scanMAX", "procedure": "as §1"}, "PCTK2": {"biological_target": "T30, PCTK2 (Homo sapiens, UniProt Q00537)", "T30 construct": "purchased Eurofins/DiscoverX KINOMEscan scanMAX", "procedure": "as §1"}, "PIK3CA(I800L)": {"biological_target": "T31, PIK3CA(I800L) (Homo sapiens, UniProt P42336, I800L)", "T31 construct": "purchased Eurofins/DiscoverX KINOMEscan scanMAX", "T31 sequence (P42336 whole entry I800L)": "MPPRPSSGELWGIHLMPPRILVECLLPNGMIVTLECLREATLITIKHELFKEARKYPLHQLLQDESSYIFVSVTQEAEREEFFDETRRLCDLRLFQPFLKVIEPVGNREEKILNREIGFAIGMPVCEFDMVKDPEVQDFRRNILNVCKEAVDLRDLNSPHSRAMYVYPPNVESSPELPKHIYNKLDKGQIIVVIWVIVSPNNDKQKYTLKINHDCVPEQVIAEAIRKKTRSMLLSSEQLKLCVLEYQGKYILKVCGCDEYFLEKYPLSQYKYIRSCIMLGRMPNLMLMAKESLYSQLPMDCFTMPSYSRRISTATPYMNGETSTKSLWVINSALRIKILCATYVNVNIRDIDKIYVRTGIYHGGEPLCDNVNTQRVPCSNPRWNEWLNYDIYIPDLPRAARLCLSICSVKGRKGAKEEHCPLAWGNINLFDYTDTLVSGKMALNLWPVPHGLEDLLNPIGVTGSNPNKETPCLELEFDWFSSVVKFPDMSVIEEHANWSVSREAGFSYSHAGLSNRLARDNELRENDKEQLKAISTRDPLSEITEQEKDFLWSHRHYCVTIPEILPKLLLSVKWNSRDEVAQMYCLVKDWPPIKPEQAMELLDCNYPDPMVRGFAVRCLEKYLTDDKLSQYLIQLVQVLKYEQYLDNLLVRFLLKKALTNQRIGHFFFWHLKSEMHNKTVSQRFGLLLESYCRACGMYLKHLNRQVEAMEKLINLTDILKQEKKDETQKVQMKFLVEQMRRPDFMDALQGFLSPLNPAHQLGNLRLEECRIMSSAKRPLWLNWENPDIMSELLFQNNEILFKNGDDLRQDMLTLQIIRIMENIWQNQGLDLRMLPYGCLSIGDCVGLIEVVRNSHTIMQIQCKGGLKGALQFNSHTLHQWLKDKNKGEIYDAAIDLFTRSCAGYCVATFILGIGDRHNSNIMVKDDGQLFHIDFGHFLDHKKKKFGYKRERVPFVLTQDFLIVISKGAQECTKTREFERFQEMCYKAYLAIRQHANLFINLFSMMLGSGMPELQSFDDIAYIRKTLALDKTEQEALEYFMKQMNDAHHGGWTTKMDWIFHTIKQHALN", "procedure": "as §1"}, "PRKD3": {"biological_target": "T32, PRKD3 (Homo sapiens, UniProt O94806)", "T32 construct": "purchased Eurofins/DiscoverX KINOMEscan scanMAX", "procedure": "as §1"}, "PRKR": {"biological_target": "T33, PRKR (Homo sapiens, UniProt P19525)", "T33 construct": "purchased Eurofins/DiscoverX KINOMEscan scanMAX", "procedure": "as §1"}, "QSK": {"biological_target": "T34, QSK (Homo sapiens, UniProt Q9Y2K2)", "T34 construct": "purchased Eurofins/DiscoverX KINOMEscan scanMAX", "procedure": "as §1"}, "SNARK": {"biological_target": "T35, SNARK (Homo sapiens, UniProt Q9H093)", "T35 construct": "purchased Eurofins/DiscoverX KINOMEscan scanMAX", "procedure": "as §1"}, "SRPK1": {"biological_target": "T36, SRPK1 (Homo sapiens, UniProt Q96SB4)", "T36 construct": "purchased Eurofins/DiscoverX KINOMEscan scanMAX", "procedure": "as §1"}, "SRPK2": {"biological_target": "T37, SRPK2 (Homo sapiens, UniProt P78362)", "T37 construct": "purchased Eurofins/DiscoverX KINOMEscan scanMAX", "procedure": "as §1"}, "STK33": {"biological_target": "T38, STK33 (Homo sapiens, UniProt Q9BYT3)", "T38 construct": "purchased Eurofins/DiscoverX KINOMEscan scanMAX", "procedure": "as §1"}, "TGFBR1": {"biological_target": "T39, TGFBR1 (Homo sapiens, UniProt P36897)", "T39 construct": "purchased Eurofins/DiscoverX KINOMEscan scanMAX", "T39 sequence (P36897 34-503)": "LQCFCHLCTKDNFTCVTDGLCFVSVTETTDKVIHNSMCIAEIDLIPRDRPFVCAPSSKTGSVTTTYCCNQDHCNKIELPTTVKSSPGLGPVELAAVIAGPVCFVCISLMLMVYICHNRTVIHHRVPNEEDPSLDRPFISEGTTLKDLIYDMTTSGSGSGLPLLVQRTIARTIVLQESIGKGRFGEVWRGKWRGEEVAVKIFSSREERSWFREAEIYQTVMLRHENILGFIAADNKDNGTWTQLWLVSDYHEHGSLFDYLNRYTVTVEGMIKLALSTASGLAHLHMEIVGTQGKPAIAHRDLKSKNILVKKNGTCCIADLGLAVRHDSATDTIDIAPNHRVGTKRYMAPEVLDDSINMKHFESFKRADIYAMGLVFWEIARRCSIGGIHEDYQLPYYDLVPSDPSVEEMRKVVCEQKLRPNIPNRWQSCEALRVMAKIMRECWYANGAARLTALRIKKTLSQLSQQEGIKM", "procedure": "as §1"}, "WNK2": {"biological_target": "T40, WNK2 (Homo sapiens, UniProt Q9Y3S1)", "T40 construct": "DNA tag (qPCR barcode); purchased Eurofins/DiscoverX KINOMEscan scanMAX", "procedure": "as §1"}, "YSK4": {"biological_target": "T41, YSK4 (Homo sapiens, UniProt Q56UN5)", "T41 construct": "purchased Eurofins/DiscoverX (KINOMEscan scanMAX service)", "procedure": "as §1"}}, "data": [{"smiles": "CN1CCN(C2CCC(n3cc(-c4ccc(Oc5ccccc5)cc4)c4c(N)ncnc43)CC2)CC1", "note": "(centres unmarked) [A-419259]", "values": [{"measurement": "% Control", "setting": "ALK(L1196M)", "result": 68, "unit": "%"}, {"measurement": "% Control", "setting": "AMPK-alpha2", "result": 42, "unit": "%"}, {"measurement": "% Control", "setting": "ANKK1", "result": 73, "unit": "%"}, {"measurement": "% Control", "setting": "CAMK1B", "result": 100, "unit": "%"}, {"measurement": "% Control", "setting": "CAMK1D", "result": 97, "unit": "%"}, {"measurement": "% Control", "setting": "CDK3", "result": 99, "unit": "%"}, {"measurement": "% Control", "setting": "CDK4-cyclinD1", "result": 27, "unit": "%"}, {"measurement": "% Control", "setting": "CDK4-cyclinD3", "result": 81, "unit": "%"}, {"measurement": "% Control", "setting": "CDKL3", "result": 100, "unit": "%"}, {"measurement": "% Control", "setting": "CSNK1A1L", "result": 64, "unit": "%"}, {"measurement": "% Control", "setting": "DCAMKL3", "result": 100, "unit": "%"}, {"measurement": "% Control", "setting": "DMPK", "result": 100, "unit": "%"}, {"measurement": "% Control", "setting": "DRAK2", "result": 93, "unit": "%"}, {"measurement": "% Control", "setting": "DYRK1B", "result": 21, "unit": "%"}, {"measurement": "% Control", "setting": "DYRK2", "result": 100, "unit": "%"}, {"measurement": "% Control", "setting": "EPHA7", "result": 100, "unit": "%"}, {"measurement": "% Control", "setting": "FGFR1", "result": 1.6, "unit": "%"}, {"measurement": "% Control", "setting": "FLT3(D835V)", "result": 0.15, "unit": "%"}, {"measurement": "% Control", "setting": "GAK", "result": 69, "unit": "%"}, {"measurement": "% Control", "setting": "IRAK4", "result": 90, "unit": "%"}, {"measurement": "% Control", "setting": "[1]", "result": 99, "unit": "%"}, {"measurement": "% Control", "setting": "[2]", "result": 100, "unit": "%"}, {"measurement": "% Control", "setting": "KIT(D816H)", "result": 40, "unit": "%"}, {"measurement": "% Control", "setting": "KIT(V559D)", "result": 0.05, "unit": "%"}, {"measurement": "% Control", "setting": "LKB1", "result": 100, "unit": "%"}, {"measurement": "% Control", "setting": "LOK", "result": 20, "unit": "%"}, {"measurement": "% Control", "setting": "MAP4K4", "result": 83, "unit": "%"}, {"measurement": "% Control", "setting": "MARK3", "result": 83, "unit": "%"}, {"measurement": "% Control", "setting": "MKNK2", "result": 8.3, "unit": "%"}, {"measurement": "% Control", "setting": "PCTK2", "result": 59, "unit": "%"}, {"measurement": "% Control", "setting": "PIK3CA(I800L)", "result": 98, "unit": "%"}, {"measurement": "% Control", "setting": "PRKD3", "result": 17, "unit": "%"}, {"measurement": "% Control", "setting": "PRKR", "result": 100, "unit": "%"}, {"measurement": "% Control", "setting": "QSK", "result": 93, "unit": "%"}, {"measurement": "% Control", "setting": "SNARK", "result": 26, "unit": "%"}, {"measurement": "% Control", "setting": "SRPK1", "result": 100, "unit": "%"}, {"measurement": "% Control", "setting": "SRPK2", "result": 97, "unit": "%"}, {"measurement": "% Control", "setting": "STK33", "result": 30, "unit": "%"}, {"measurement": "% Control", "setting": "TGFBR1", "result": 60, "unit": "%"}, {"measurement": "% Control", "setting": "WNK2", "result": 67, "unit": "%"}, {"measurement": "% Control", "setting": "YSK4", "result": 58, "unit": "%"}]}]}
